Experiments:
[1] = target: T1, CYP2A6 (Homo sapiens, UniProt P11509); details: cited from earlier work
T1 sequence (P11509 1-494): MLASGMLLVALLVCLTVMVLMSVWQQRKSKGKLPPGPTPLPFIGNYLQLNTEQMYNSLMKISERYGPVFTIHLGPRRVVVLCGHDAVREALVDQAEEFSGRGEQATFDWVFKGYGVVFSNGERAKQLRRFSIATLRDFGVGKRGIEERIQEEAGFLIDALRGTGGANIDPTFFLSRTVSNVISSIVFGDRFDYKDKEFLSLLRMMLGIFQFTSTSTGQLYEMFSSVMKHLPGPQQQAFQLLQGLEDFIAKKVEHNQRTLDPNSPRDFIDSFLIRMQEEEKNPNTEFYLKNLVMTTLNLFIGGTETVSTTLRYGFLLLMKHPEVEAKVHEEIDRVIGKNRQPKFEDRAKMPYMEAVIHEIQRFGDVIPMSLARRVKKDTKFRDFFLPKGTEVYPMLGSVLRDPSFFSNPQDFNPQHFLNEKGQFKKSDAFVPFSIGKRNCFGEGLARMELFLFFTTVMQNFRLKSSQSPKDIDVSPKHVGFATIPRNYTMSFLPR

[2] = target: T1, CYP2A6; test: biochemical; assay type: biochemical
[3] = target: T1, CYP2A6; assay type: biochemical
[4] = target: T2, CYP2A13 (Homo sapiens, UniProt Q16696); test: in vitro; assay type: biochemical; details: for activity at 10 min, 20 µM: human, pH 7.4, probe coumarin (7-hydroxylation), 20 μM in the secondary reaction
T2 sequence (Q16696 1-494): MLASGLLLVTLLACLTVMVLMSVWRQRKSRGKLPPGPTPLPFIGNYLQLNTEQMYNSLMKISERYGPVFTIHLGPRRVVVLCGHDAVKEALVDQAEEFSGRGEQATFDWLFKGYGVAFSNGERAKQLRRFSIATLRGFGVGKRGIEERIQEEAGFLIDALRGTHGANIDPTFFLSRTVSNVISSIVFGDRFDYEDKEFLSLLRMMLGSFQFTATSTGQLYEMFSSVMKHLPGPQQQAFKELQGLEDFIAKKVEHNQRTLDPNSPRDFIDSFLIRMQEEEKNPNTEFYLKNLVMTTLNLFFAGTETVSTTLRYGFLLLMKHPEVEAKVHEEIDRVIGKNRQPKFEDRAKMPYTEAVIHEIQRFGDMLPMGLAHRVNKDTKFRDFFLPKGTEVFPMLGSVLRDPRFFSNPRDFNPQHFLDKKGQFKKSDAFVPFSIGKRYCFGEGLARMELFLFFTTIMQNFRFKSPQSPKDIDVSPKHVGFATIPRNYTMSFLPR

[5] = target: T1, CYP2A6; test: Effect of NADPH and trapping agents; assay type: biochemical; details: for Percent Activity Remaining (10 min relative to 0 min): menthofuran 5 μM or β-nicotyrine 20 μM
[6] = target: T1, CYP2A6; test: CYP2A6 inactivation kinetics and partition ratio; assay type: biochemical
[7] = target: T1, CYP2A6; test: Irreversibility of CYP2A6 inactivation; assay type: biochemical
[8] = target: T2, CYP2A13; test: biochemical
[9] = target: T2, CYP2A13; details: cited from earlier work

Row | Structure (SMILES) | Inhibition of CYP2A6 (in words) [1] | Ki [2] [nM] | Inhibition of CYP2A6, times less potent than menthofuran and β-nicotyrine ([2]; comparison of KI values) [times] | Inactivation of CYP2A6 (in words) ([3]; inhibitor 20 μM with NADPH) | activity at 10 min, 20 µM [4] [%] | Inactivation of CYP2A13 (in words) ([4]; inhibitor 20 μM with NADPH) | Percent Activity Remaining (10 min relative to 0 min) ([5]; inhibitor + NADPH + glutathione (10mM)) [%] | Percent Activity Remaining (10 min relative to 0 min) ([5]; inhibitor + NADPH + semicarbazide (10mM)) [%] | Percent Activity Remaining (10 min relative to 0 min) ([5]; inhibitor + NADPH) [%] | Loss of CYP2A6 enzyme activity ([5]; menthofuran 5 μM or β-nicotyrine 20 μM with NADPH, 10 min) | Loss of CYP2A6 coumarin 7-hydroxylation activity ([3]; inhibitor 20 μM, in the presence of NADPH) [%] | KI for inactivation of CYP2A6, fold lower than that of β-nicotyrine [6] [fold] | Partition ratio, times higher than for β-nicotyrine-mediated inactivation ([6]; calculated partition ratio) | Reversibility of CYP2A6 inactivation upon removal of unbound small molecules [7] | Loss of CYP2A13 activity ([4]; inhibitor 20 μM with NADPH) | Loss of CYP2A13-catalyzed coumarin 7-hydroxylation at higher concentration ([4]; menthofuran 200 μM or 30 min incubations, data not shown) | Ki [8] [nM] | Catalytic efficiency (kcat/Km) of metabolic activation, CYP2A13 versus CYP 2A6 [9] [fold]
1 | CC(C)[C@@H]1CC[C@@H](C)C[C@H]1O [Menthol, (1R,2S,5R)-2-isopropyl-5-methylcyclohexanol] | weak inhibitor | 110000 ± 10700 | 100 | no indication | 87 ± 11 | no indication |  |  |  |  |  |  |  |  |  |  |  | 
2 | Cc1coc2c1CC[C@@H](C)C2 [Menthofuran, 3,6R-dimethyl-4,5,6,7-tetrahydro-1-benzofuran] |  | 290 ± 50 |  |  | 91 ± 5 |  | 48 | 40 | 43 | about 60% | 95 | ~50 | ~ 3.5 times | not reversible | no significant loss | no loss | 1240 ± 260 | 
3 | CN(CCCC(=O)c1cccnc1)N=O [NNK, 4-(methylnitrosamino)-1-(3-pyridyl)-1-butanone] |  |  |  |  |  |  |  |  |  |  |  |  |  |  |  |  |  | 200
